Experimental data published in US20260374814A1, “Synthetic Peptide And Construct” (TOAGOSEI CO., LTD, priority 2022, published 2026).
FAM = 5(6)-carboxyfluorescein

tested on: NSC-34 cells; assay: Evaluation of Cell Membrane Permeability by Flow Cytometry (transfer of FAM construct into NSC-34 cells); type: cell-based; conditions: NSC-34 cells (mouse motor neuron-like hybrid cell line); 20 μM in culture medium; 20 hours at 37 °C, 5% CO2; flow cytometer, detector FL2
Method: As the eukaryotic cells, NSC-34 cells (mouse motor neuron-like hybrid cell line) were used and the cell membrane permeability of the peptides 1 to 3 was analyzed. As a culture medium of the NSC-34 cell, 10% fetal bovine serum (FBS)-containing Dulbecco's modified Eagle's medium (DMEM (Cat No. 044-29765, manufactured by FUJIFILM Wako Pure Chemical Corporation)) was used. The samples 1 to 3 were each dissolved in dimethyl sulfoxide (DMSO) to prepare sample solutions 1 to 3 with a sample concentration of 4 mM. Then, the sample solutions were diluted in the culture medium to prepare 40 μM sample solutions 1 to 3. The aforementioned prepared sample solutions 1 to 3 were used in Examples 1 to 3, and the FAM solution was used in Reference Example 1.
The NSC-34 cell was suspended in the culture medium to prepare a cell suspension of 2×10^5 cells/mL. The cell suspension was added by 1 mL to a well of a commercially available six-hole (well) plate (manufactured by AGC TECHNO GLASS Co., Ltd.) so as to seed the NSC-34 cell to be 2×10^5 cells/well. Next, 1 mL of the 40 μM sample solution 1 was added to the well so that the sample concentration in the culture medium in the well became 20 μM. After that, the six-well plate was left at rest in a cell culture apparatus, and incubated for 20 hours at 37 °C under a 5% CO2 condition.
After the 20-hour incubation, the culture supernatant was removed from the well and the cells in the well were cleaned twice with 1 mL of PBS. Next, 100 μL of the 0.25% trypsin/EDTA solution was added to the well and the incubation was performed for three minutes at 37 °C. After the incubation, 900 μL of the culture medium was added to the well to deactivate the trypsin. Subsequently, the cell suspension in the well was transferred to a tube and the cells were collected. This tube was subjected to five-minute centrifugal separation at 4 °C under a condition of 210×g. […]
Regarding the obtained cells (cell pellet), the cell membrane permeability of the sample 1 was analyzed using a flow cytometer. […]
Using the aforementioned flow cytometer, gating based on forward scatter (FSC) and side scatter (SSC) was performed to set a gate about a cell group to be analyzed, and the fluorescence intensity was measured about the cell group in this gate. […] The fluorescence intensity was measured using a fluorescence detector FL2 of the flow cytometer (optimum detection wavelength around 543 nm) capable of detecting the fluorescence wavelength of FAM. Regarding this measurement result, the analysis was performed using commercially available analysis software “FlowJo” (manufactured by TreeStar) to obtain mean fluorescence intensity (MFI) of the cell group to be measured. […]

Point of comparison: “5(6)-carboxyfluorescein [Reference Example 1, reference compound]”, “MFI (mean fluorescence intensity)” value 10.9. Against it:
- Ac-SASAG-FAM [Example 1] — higher, 20.9
- Ac-SASASAG-FAM (Ac-SASASAG-{FAM}) [Example 2, construct: peptide 2 (SASASAG), N-terminus acetylated, with FAM bonded to the C-terminus amino acid residue] — higher, 19.2
- Ac-SASASASAG-FAM (Ac-SASASASAG-{FAM}) [Example 3, construct: peptide 3 (…), N-terminus acetylated, with FAM bonded to the C-terminus amino acid residue] — higher, 22.8
